Assays:
Type in all cases: in vivo
Stellaria media [1] = experiment: Herbicidal post-emergence action (Part 2), 1280 g/ha; details: application rate 1280 g/ha, rated visually after about 3 weeks, Table C7
Protocol: (§1) Seeds of mono- and dicotyledonous weed plants were placed in plastic pots in sandy loam soil (doubly sown with in each case one species of mono- or dicotyledonous weed plants per pot), covered with soil and cultivated in a greenhouse under controlled growth conditions. 2 to 3 weeks after sowing, the test plants were treated at the one-leaf stage. The compounds of the invention, formulated in the form of wettable powders (WP) or as emulsion concentrates (EC), were applied onto the green parts of the plants as aqueous suspension or emulsion with addition of 0.5% additive at a water application rate of 600 liters per hectare (converted). After the test plants had been kept in the greenhouse under optimum growth conditions for about 3 weeks, the activity of the preparations was rated visually in comparison to untreated controls. For example, 100% activity=the plants have died, 0% activity=like control plants. Tables C1 to C7 below show the effects of selected compounds of the general formula (I) according to Tables 1.1 to 1.150 on various harmful plants and at an application rate corresponding to 1280 g/ha, which were obtained by the experimental procedure mentioned above.

Amaranthus retroflexus [2] = experiment: Herbicidal pre-emergence action (Part 2), 1280 g/ha; details: application rate 1280 g/ha, scored visually after about 3 weeks, Table D6
Text: (§2) Seeds of mono- and dicotyledonous weed plants were placed in plastic pots in sandy loam soil (doubly sown with in each case one species of mono- or dicotyledonous weed plants per pot) and covered with soil. The compounds of the invention, formulated in the form of wettable powders (WP) or as emulsion concentrates (EC), were then applied onto the surface of the covering soil as aqueous suspension or emulsion with addition of 0.5% additive at a water application rate of 600 liters per hectare (converted). After the treatment, the pots were placed in a greenhouse and kept under good growth conditions for the test plants. After about 3 weeks, the effect of the preparations was scored visually in comparison with untreated controls as percentages. For example, 100% activity=the plants have died, 0% activity=like control plants. Tables D1 to D8 below show the effects of selected compounds of the general formula (I) according to Tables 1.1 to 1.150 on various harmful plants and at an application rate corresponding to 1280 g/ha, which were obtained by the experimental procedure mentioned above.

Matricaria inodora [3] = experiment: as above; details: application rate 1280 g/ha, scored visually after about 3 weeks, Table D7
Text: as §2

Stellaria media [4] = experiment: as above; details: application rate 1280 g/ha, scored visually after about 3 weeks, Table D8
Text: as §2

Echinochloa crus-galli = experiment: as above; details: application rate 1280 g/ha, scored visually after about 3 weeks, Table D1
Text: as §2

Amaranthus retroflexus [5] = experiment: Herbicidal post-emergence action (Part 2), 1280 g/ha; details: application rate 1280 g/ha, rated visually after about 3 weeks, Table C5
Protocol: as §1

Matricaria inodora [6] = experiment: as above; details: application rate 1280 g/ha, rated visually after about 3 weeks, Table C6
Protocol: as §1

Poa annua = experiment: Herbicidal pre-emergence action (Part 2), 1280 g/ha; details: application rate 1280 g/ha, scored visually after about 3 weeks, Table D3
Text: as §2

Abutilon theophrasti [7] = experiment: as above; details: application rate 1280 g/ha, scored visually after about 3 weeks, Table D5
Text: as §2

Amaranthus retroflexus [8] = experiment: Pre-emergence herbicidal action, greenhouse, 320 g/ha; details: application rate 320 g/ha, scored visually after about 3 weeks vs untreated controls
Text: (§3) Seeds of monocotyledonous and dicotyledonous weed plants and crop plants were placed in plastic or organic planting pots and covered with soil. The compounds of the invention, formulated in the form of wettable powders (WP) or as emulsion concentrates (EC), were then applied to the surface of the covering soil as aqueous suspension or emulsion with addition of 0.5% additive at a water application rate equivalent to […]. After the treatment, the pots were placed in a greenhouse and kept under good growth conditions for the test plants. After about 3 weeks, the effect of the preparations is scored visually in comparison with untreated controls as percentages. For example, 100% activity=the plants have died, 0% activity=like control plants. Tables B1 to B14 below show the effects of selected compounds of the general formula (I) according to Tables I.1 to I.150 on various harmful plants and at an application rate corresponding to 320 g/ha, which were obtained by the experimental procedure mentioned above.

Alopecurus myosuroides = experiment: as above; details: application rate 320 g/ha, scored visually after about 3 weeks vs untreated controls
Text: as §3

Matricaria inodora [9] = experiment: as above; details: application rate 320 g/ha, scored visually after about 3 weeks vs untreated controls
Text: as §3

Stellaria media [10] = experiment: as above; details: application rate 320 g/ha, scored visually after about 3 weeks vs untreated controls
Text: as §3

Viola tricolor = experiment: as above; details: application rate 320 g/ha, Table B8
Text: as §3

Pharbitis purpurea = experiment: as above; details: application rate 320 g/ha, Table B12
Text: as §3

Digitaria sanguinalis = experiment: as above; details: application rate 320 g/ha, Table B9
Text: as §3

Avena fatua = experiment: as above; details: application rate 320 g/ha, scored visually after about 3 weeks vs untreated controls
Text: as §3

Setaria viridis = experiment: as above; details: application rate 320 g/ha, Table B11
Text: as §3

Polygonum convolvulus = experiment: as above; details: application rate 320 g/ha, scored visually after about 3 weeks vs untreated controls
Text: as §3

Abutilon theophrasti [11] = experiment: as above; details: application rate 320 g/ha, scored visually after about 3 weeks vs untreated controls
Text: as §3

Hordeum murinum = experiment: as above; details: application rate 320 g/ha, Table B14
Text: as §3

SMILES	Stellaria media (Stellaria media [1]) [%]	Amaranthus retroflexus (Amaranthus retroflexus [2]) [%]	Matricaria inodora (Matricaria inodora [3]) [%]	Stellaria media (Stellaria media [4]) [%]	Amaranthus retroflexus (Amaranthus retroflexus [5]) [%]	Poa Annua (Poa annua) [%]	Amaranthus retroflexus (efficacy in %) (Amaranthus retroflexus [8]) [%]	Stellaria media (efficacy in %) (Stellaria media [10]) [%]	Viola tricolor (efficacy in %) (Viola tricolor) [%]	Polygonum convolvulus (efficacy in %) (Polygonum convolvulus) [%]	other results
CCCC(=O)OC1CC(C)N(C)C(=O)N1c1cc(C(F)(F)F)ccn1 (stereo not shown) [I.44-449]	90	100	90	100							Echinochloa crus-galli (Echinochloa crus-galli): 100%
CCC(=O)OC1N(c2cc(C(C)(C)C)on2)C(=O)N(C)CC1(C)C (stereo not shown) [I.63-162]	100	100	90	100	100	100					Matricaria inodora (Matricaria inodora [6]): 100%; Abutilon theophrasti (Abutilon theophrasti [7]): 100%
CC1CC(O)N(c2cc(C(F)(F)F)ccn2)C(=O)N1C (stereo not shown) [I.41-449]							100	100	100		Alopecurus myosuroides (efficacy in %) (Alopecurus myosuroides): 90%; Matricaria inodora (efficacy in %) (Matricaria inodora [9]): 100%
COCC(C)(C)c1cc(N2C(=O)N(C)CCC2O)no1 (stereo not shown) [I.1-200]								80	80		Matricaria inodora (efficacy in %) (Matricaria inodora [9]): 90%; Pharbitis purpurea (efficacy in %) (Pharbitis purpurea): 100%
CCC(=O)OC1CCN(C)C(=O)N1c1cc(C(C)(C)C)no1 (stereo not shown) [I.3-290, 3-(3-tert-Butyl-1,2-oxazol-5-yl)-1-methyl-2-oxohexahydropyrimidin-4-yl Propionate]	100	100	100	100	100	100					Matricaria inodora (Matricaria inodora [6]): 90%; Abutilon theophrasti (Abutilon theophrasti [7]): 100%
CN1CCC(O)N(c2noc(C(C)(C)C)c2Br)C1=O (stereo not shown) [I.1-207]							90	100	100	100	Digitaria sanguinalis (efficacy in %) (Digitaria sanguinalis): 100%; Avena fatua (efficacy in %) (Avena fatua): 90%; Setaria viridis (efficacy in %) (Setaria viridis): 100%; Pharbitis purpurea (efficacy in %) (Pharbitis purpurea): 100%
CCC(=O)OC1CCN(C)C(=O)N1c1cc(C(F)(F)F)c(Br)cn1 (stereo not shown) [I.3-464]							90	100	100	90	Setaria viridis (efficacy in %) (Setaria viridis): 90%
CON1CCC(O)N(c2cc(C(C)(C)C)on2)C1=O (stereo not shown) [I.91-162]							90			100	Digitaria sanguinalis (efficacy in %) (Digitaria sanguinalis): 100%; Alopecurus myosuroides (efficacy in %) (Alopecurus myosuroides): 80%
CN1CCC(O)N(c2noc(C(C)(C)C)c2F)C1=O (stereo not shown) [I.1-206]							90	100	100	90	Digitaria sanguinalis (efficacy in %) (Digitaria sanguinalis): 100%; Avena fatua (efficacy in %) (Avena fatua): 80%; Alopecurus myosuroides (efficacy in %) (Alopecurus myosuroides): 80%; Setaria viridis (efficacy in %) (Setaria viridis): 90%; Matricaria inodora (efficacy in %) (Matricaria inodora [9]): 100%; Abutilon theophrasti (efficacy in %) (Abutilon theophrasti [11]): 90%; Hordeum murinum (efficacy in %) (Hordeum murinum): 80%; Pharbitis purpurea (efficacy in %) (Pharbitis purpurea): 80%
CCCC(=O)OC1CCN(C)C(=O)N1c1cc(C(F)(F)F)ccn1 (stereo not shown) [I.4-449]	90	100	100	100	100	90					
CN1CCC(O)N(c2cc(C(C)(C)F)ncn2)C1=O (stereo not shown) [I.1-503]									100		Avena fatua (efficacy in %) (Avena fatua): 100%; Matricaria inodora (efficacy in %) (Matricaria inodora [9]): 100%
CCCC(=O)OC1CCN(C)C(=O)N1c1cc(C(C)(C)C)no1 (stereo not shown) [I.4-290]		100	90	100		90					Abutilon theophrasti (Abutilon theophrasti [7]): 100%
C=CCC(C)(C)c1cc(N2C(=O)N(C)CCC2O)no1 (stereo not shown) [I.1-199]							100	100	100	90	Alopecurus myosuroides (efficacy in %) (Alopecurus myosuroides): 90%; Matricaria inodora (efficacy in %) (Matricaria inodora [9]): 100%; Abutilon theophrasti (efficacy in %) (Abutilon theophrasti [11]): 100%; Hordeum murinum (efficacy in %) (Hordeum murinum): 80%
CC(C)CC(=O)OC1CCN(C)C(=O)N1c1cc(C(F)(F)F)ccn1 (stereo not shown) [I.7-449]		100	100	100	100	90					Matricaria inodora (Matricaria inodora [6]): 90%
CCC(=O)OC1CCN(C)C(=O)N1c1cc(C(F)(F)F)c(Cl)cn1 (stereo not shown) [I.3-451]	100	100	90	100	100	90					Echinochloa crus-galli (Echinochloa crus-galli): 100%
CC(=O)OC1CCN(C)C(=O)N1c1cc(C(F)(F)F)c(Cl)cn1 (stereo not shown) [I.2-451]	100	100	90	100	100						
CCCC(=O)OC1CCN(C)C(=O)N1c1cc(C(F)(F)F)c(Cl)cn1 (stereo not shown) [I.4-451]	100	100		100	100						
CN1CCC(O)N(C2=NOC(C)(C)C2)C1=O (stereo not shown) [I.1-709]								100		100	Digitaria sanguinalis (efficacy in %) (Digitaria sanguinalis): 100%; Alopecurus myosuroides (efficacy in %) (Alopecurus myosuroides): 100%
Cc1c(N2C(=O)N(C)CCC2O)noc1C(C)(C)C (stereo not shown) [I.1-177]							90		90	100	Digitaria sanguinalis (efficacy in %) (Digitaria sanguinalis): 100%; Setaria viridis (efficacy in %) (Setaria viridis): 90%
